This test deals with S. aureus MMX USA 300; MRSA. Put plainly: MIC (broth microdilution or agar dilution, CLSI). The class given is cell-based. As to conditions: Staphylococcus aureus. In short, it runs like this: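 Triplicate CLSI determinations by broth or agar dilution, compound at 128-0.06 μg/mL in 2.5% DMSO; special handling for anaerobes. Broth microdilution used 5×10^5 CFU/mL inocula in cation-adjusted Mueller-Hinton broth.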

Values after ≈ are worked out from the molar mass of the structure shown.

A word on the MIC: it is the lowest concentration found to suppress growth.

Consider `CCC[C@@H]1C[C@@H](C(=O)N[C@@H]([C@H]2O[C@H](SC)[C@H](O)[C@@H](O)[C@H]2O)[C@H](C)Cl)N(C)C1` [Clindamycin, clindamycin, reference compound], for which 0.25 µg/mL (≈ 0.588 µM) was the least that counted as inhibitory (MIC).

Source of the values: patent US20230203081A1, “LINCOSAMIDE ANTIBIOTICS AND USES THEREOF” (President and Fellows of Harvard College, priority 2020, published 2023).
